The values that follow come from paper PMC6792352, “Limited Chemical Structural Diversity Found to Modulate Thyroid Hormone Receptor in the Tox21 Chemical Library” (Environmental Health Perspectives, 2019).

Molecules are shown by their SMILES. Where a name gives a salt, the structure may show the parent alone.

One data set is described as follows: in vitro. The conditions noted are these: rat, gh3-tre-luc cells, AC50 (uM) modified / 1000.
As for `CC1(C)CCC(Cc2ccc(Cl)cc2)C1(O)Cn1cncn1` (centres unmarked) [Metconazole], it took 82.6 µM to reach half-maximal cytotoxicity (CC50 at 24 h).
As for `CN1C[C@H](CNC(=O)OCc2ccccc2)C[C@@H]2c3cccc4c3c(cn4C)C[C@H]21` [Metergoline], the half-maximal cytotoxic concentration (CC50) (commonly the concentration at which the toxic effect on the cells reaches its halfway point) at 24 h amounted to 8.07 µM.
`CNC(=O)N(C)c1nc2ccccc2s1` [Methabenzthiazuron] gave a CC50 at 24 h greater than 90 µM.
Molecule `CC(=O)OC(C)C[N+](C)(C)C` (centres unmarked) [Methacholine chloride] gave a CC50 at 24 h greater than 20 µM.
In the case of `C=C(C)C(N)=O` [Methacrylamide], the CC50 at 24 h was greater than 90 µM.
Molecule `C=C(C)C(=O)O` [Methacrylic acid] gave a CC50 at 24 h greater than 90 µM.
For `C=C1c2cccc(O)c2C(O)=C2C(=O)[C@]3(O)C(O)=C(C(N)=O)C(=O)[C@@H](N(C)C)[C@@H]3[C@@H](O)[C@H]12` [Methacycline hydrochloride], the CC50 at 24 h was greater than 20 µM.
As for `CCC(=O)C(CC(C)N(C)C)(c1ccccc1)c1ccccc1` (centres unmarked) [Methadone hydrochloride], half-maximal cytotoxicity (CC50 at 24 h) was put at 28.5 µM.
With `CS(=O)(=O)O` [Methanesulfonic acid], the CC50 at 24 h is greater than 90 µM.
The same measure, in the same setting: the same measure for `CS(=O)(=O)Cl` [Methanesulfonyl chloride]: greater than 90 µM; for `CO` [Methanol]: greater than 90 µM.
On the same count and under the same terms, the result for `CC[N+](C)(CC)CCOC(=O)C1c2ccccc2Oc2ccccc21` [Methantheline bromide] reads greater than 50 µM; that for `Cc1ccccc1-n1c(C)nc2ccccc2c1=O` [Methaqualone], greater than 50 µM; that for `CC(=O)/N=c1/sc(S(N)(=O)=O)nn1C` [Methazolamide], greater than 20 µM.
`CN1CCC(CN2c3ccccc3Sc3ccccc32)C1` (centres unmarked) [Methdilazine hydrochloride] yielded a CC50 at 24 h of 8.75 µM.
As for `C1N2CN3CN1CN(C2)C3` [Methenamine], the CC50 at 24 h was greater than 50 µM.
The same measure, in the same setting: the result for `Cc1oc(C)c(C(=O)Nc2ccccc2)c1C` [Methfuroxam] reads greater than 90 µM.
The same measure, in the same setting: the same measure for `COc1cccc(OC)c1C(=O)N[C@@H]1C(=O)N2[C@@H]1SC(C)(C)[C@@H]2C(=O)O` [Methicillin sodium hydrate]: greater than 50 µM; for `COc1nn(CSP(=S)(OC)OC)c(=O)s1` [Methidathion]: greater than 90 µM.
`CSCC[C@H](N)C(=O)O` [Methionine] gave a cytotoxic concentration (CC50) at 24 h greater than 50 µM.
With `CN1C(=O)/C(=N\NC(N)=S)c2ccccc21` [Methisazone], it took 34.2 µM to reach half-maximal cytotoxicity (CC50 at 24 h).
For `Cc1cccc(NC(=S)N(C)C)c1` [Methiuron], the CC50 at 24 h was greater than 90 µM.
`COc1ccccc1OCC(O)COC(N)=O` (centres unmarked) [Methocarbamol] showed a CC50 at 24 h greater than 20 µM.
`CNC(=O)ON=C(C)SC` [Methomyl] showed a CC50 at 24 h greater than 90 µM.
`COC(C)(C)CCCC(C)C/C=C/C(C)=C/C(=O)OC(C)C` (centres unmarked) [Methoprene] returned a cytotoxic concentration (CC50) at 24 h greater than 90 µM.
Turning to `COc1ccc2c(c1)N(C[C@H](C)CN(C)C)c1ccccc1S2` [Methotrimeprazine maleate], the 50% cytotoxic concentration (CC50) at 24 h amounted to 6.79 µM.
As to `COCC(=O)O` [Methoxyacetic acid], the CC50 at 24 h is greater than 90 µM.
On to `COc1cccc(C(=O)NN(C(=O)c2cc(C)cc(C)c2)C(C)(C)C)c1C` [Methoxyfenozide], for which the CC50 at 24 h was greater than 90 µM.
`COC(F)(F)C(Cl)Cl` [Methoxyflurane] registered a CC50 at 24 h greater than 50 µM.
Consider `COC(C(=O)O)c1ccccc1` (centres unmarked) [Methoxyphenylacetic acid], for which the CC50 at 24 h was greater than 90 µM.
For the molecule `CN1C(=O)CC(C)(c2ccccc2)C1=O` (centres unmarked) [Methsuximide], the CC50 at 24 h is greater than 50 µM.
In turn, `CN1C(CCl)Nc2cc(Cl)c(S(N)(=O)=O)cc2S1(=O)=O` (centres unmarked) [Methyclothiazide] gave a CC50 at 24 h greater than 50 µM.
For the molecule `COC(=O)Cc1cccc2ccccc12` [Methyl 1-naphthaleneacetate], the CC50 at 24 h was greater than 90 µM.
In the case of `COC(=O)C(Br)CBr` (centres unmarked) [Methyl 2,3-dibromopropionate], the cytotoxic concentration (CC50) at 24 h is greater than 90 µM.
In turn, `COC(=O)c1c(C)cc(O)c(C)c1O` [Methyl 2,4-dihydroxy-3,6-dimethylbenzoate] displayed a CC50 at 24 h greater than 90 µM.
With `COC(=O)c1ccccc1Cl` [Methyl 2-chlorobenzoate], the CC50 at 24 h is greater than 90 µM.
Molecule `COC(=O)C(C)O` (centres unmarked) [Methyl 2-hydroxypropanoate] displayed a CC50 at 24 h greater than 90 µM.
Still for that read-out and setting: the same measure for `COC(=O)c1ccccc1OC` [Methyl 2-methoxybenzoate]: greater than 90 µM; for `CSSc1ccoc1C` [Methyl 2-methyl-3-furyl disulfide]: greater than 80 µM; for `COC(=O)c1ccccc1C` [Methyl 2-methylbenzoate]: greater than 90 µM.
Molecule `CCCCCCC#CC(=O)OC` [Methyl 2-nonynoate] gave a CC50 at 24 h greater than 90 µM.
In turn, `CCCCCC#CC(=O)OC` [Methyl 2-octynoate] had a half-maximal cytotoxic concentration (CC50) at 24 h greater than 90 µM.
On the same count and under the same terms, the same measure for `C=CC(C)(C)CC(=O)OC` [Methyl 3,3-dimethylpent-4-enoate]: greater than 90 µM.
On the same count and under the same terms, the same measure for `COC(=O)c1cc(Cl)cc(Cl)c1` [Methyl 3,5-dichlorobenzoate]: greater than 90 µM; for `COC(=O)c1cccc(Cl)c1` [Methyl 3-chlorobenzoate]: greater than 90 µM.
`CCCCCC=CCC(=O)OC` [Methyl 3-nonenoate] gave a CC50 at 24 h greater than 90 µM.
The molecule `COC(=O)c1sccc1S(N)(=O)=O` [Methyl 3-sulfamoylthiophene-2-carboxylate] gave a CC50 at 24 h greater than 90 µM.
In turn, `COC(=O)c1ccc(CBr)cc1` [Methyl 4-(bromomethyl)benzoate] had a CC50 at 24 h greater than 90 µM.
Same read-out and setting: the result for `COC(=O)c1ccc(C=O)cc1` [Methyl 4-formylbenzoate] reads greater than 90 µM; that for `COC(=O)c1ccc(OC)cc1` [Methyl 4-methoxybenzoate], greater than 90 µM.
`COC(=O)c1ccc(C)cc1` [Methyl 4-methylbenzoate] registered a 50% cytotoxic concentration (CC50) at 24 h greater than 90 µM.
Molecule `COC(=O)c1cc(Cl)ccc1[N+](=O)[O-]` [Methyl 5-chloro-2-nitrobenzoate] returned a CC50 at 24 h greater than 90 µM.
The same measure, in the same setting: the same measure for `C=CCCCCCCCCC(=O)OC` [Methyl 10-undecenoate]: greater than 50 µM.
`CCCCCCC(O)CCCCCCCCCCC(=O)OC` (centres unmarked) [Methyl 12-hydroxyoctadecanoate]: the CC50 at 24 h was greater than 90 µM.

The same data set, now with this note: rat, gh3-tre-luc cells, AC50 (uM) modified / 1000, Tox21_110001=Tox21_110809; viability, 1 nM T3 present, 24 h.
For `CC[C@@H](CO)NC(=O)[C@@H]1C=C2c3cccc4[nH]cc(c34)C[C@H]2N(C)C1` [Methergine], the cytotoxic concentration (CC50) at 24 h was greater than 50 µM.

The same data set, now with this note: rat, gh3-tre-luc cells, AC50 (uM) modified / 1000, Tox21_110001=Tox21_111647; viability, 1 nM T3 present, 24 h.
For `C[C@]12C=CC(=O)C=C1CC[C@@H]1[C@@H]2CC[C@@]2(C)[C@H]1CC[C@]2(C)O` [Methandrostenolone], the CC50 at 24 h was greater than 50 µM.

Staying with this data set, now noted: rat, gh3-tre-luc cells, AC50 (uM) modified / 1000, Tox21_110001=Tox21_112600; viability, 1 nM T3 present, 24 h.
`CCCCCCC(=O)O[C@H]1CC[C@H]2[C@@H]3CC[C@H]4CC(=O)C=C(C)[C@]4(C)[C@H]3CC[C@]12C` [Methenolone enanthate]: the CC50 at 24 h was greater than 50 µM.

The same data set, now with this note: rat, gh3-tre-luc cells, AC50 (uM) modified / 1000, Tox21_110001=Tox21_112752; viability, 1 nM T3 present, 24 h.
`CCC1(CC)C(=O)NC(=O)N(C)C1=O` [Metharbital] registered a 50% cytotoxic concentration (CC50) at 24 h greater than 50 µM.

The data set is the same for the next values; noted with them: rat, gh3-tre-luc cells, AC50 (uM) modified / 1000, Tox21_110001=Tox21_113045; viability, 1 nM T3 present, 24 h.
The molecule `CNC(C)Cc1ccccc1OC` (centres unmarked) [Methoxyphenamine] displayed a CC50 at 24 h greater than 50 µM.

Staying with this data set, now noted: rat, gh3-tre-luc cells, AC50 (uM) modified / 1000, Tox21_110001=Tox21_201354; viability, 1 nM T3 present, 24 h.
On to `C=C(C)C#N` [Methacrylonitrile], for which the CC50 at 24 h was greater than 100 µM.

Still in this data set, the particulars now being: rat, gh3-tre-luc cells, AC50 (uM) modified / 1000, Tox21_110001=Tox21_201657; viability, 1 nM T3 present, 24 h.
In turn, `COC(=O)c1ccccc1N` [Methyl 2-aminobenzoate] displayed a 50% cytotoxic concentration (CC50) at 24 h greater than 90 µM.

The same data set, now with this note: rat, gh3-tre-luc cells, AC50 (uM) modified / 1000, Tox21_110001=Tox21_202250; viability, 1 nM T3 present, 24 h.
As to `COP(N)(=O)SC` (centres unmarked) [Methamidophos], the CC50 at 24 h was greater than 90 µM.

The same data set, now with this note: rat, gh3-tre-luc cells, AC50 (uM) modified / 1000, Tox21_110001=Tox21_301807; viability, 1 nM T3 present, 24 h.
The molecule `CC1CN1P(=O)(N1CC1C)N1CC1C` (centres unmarked) [Metepa] registered a CC50 at 24 h greater than 90 µM.

The same data set, now with this note: rat, gh3-tre-luc cells, AC50 (uM) modified / 1000, Tox21_110001=Tox21_303172; viability, 1 nM T3 present, 24 h.
The molecule `C=C(C)C#N` [Methacrylonitrile] gave a CC50 at 24 h greater than 90 µM.

Still in this data set, the particulars now being: rat, gh3-tre-luc cells, AC50 (uM) modified / 1000, Tox21_110001=Tox21_400075; viability, 1 nM T3 present, 24 h.
In the case of `COc1ccc(C(c2ccc(OC)cc2)C(Cl)(Cl)Cl)cc1` [Methoxychlor], the CC50 at 24 h stood at 76.1 µM.
